Values after ≈ are worked out from the molar mass of the structure shown.
Key:
Escherichia coli [1] = assay: Antimicrobial activity against azide-resistant aac(6')-Ib-cr expressing Escherichia coli J53 qnrA1 bearing pHS3 transconjugant from Citrobacter freundii 64 by agar dilution method; format: functional
Escherichia coli [2] = assay: Antimicrobial activity against azide-resistant aac(6')-Ib-cr deficient Escherichia coli J53 qnrA1 bearing pHS4 transconjugant from Enterobacter cloacae 91 by agar dilution method; format: functional
Escherichia coli [3] = assay: Antimicrobial activity against azide-resistant aac(6')-Ib-cr deficient Escherichia coli J53 qnrA1 bearing pHS5 transconjugant from Enterobacter cloacae 641 by agar dilution method; format: functional
Escherichia coli [4] = assay: Antimicrobial activity against azide-resistant aac(6')-Ib-cr expressing Escherichia coli J53 qnrA1 bearing pHS6 transconjugant from Escherichia coli 650 by agar dilution method; format: functional
Escherichia coli [5] = assay: Antimicrobial activity against azide-resistant Escherichia coli J53 by agar dilution method; format: functional
Enterobacter cloacae [6] = assay: Antimicrobial activity Enterobacter cloacae 641 expressing plasmid-mediated quinolone resistance qnr A gene by agar dilution method; format: functional
Escherichia coli [7] = assay: Antimicrobial activity Escherichia coli 633 expressing plasmid-mediated quinolone resistance qnr A gene by agar dilution method; format: functional
Citrobacter freundii = assay: Antimicrobial activity Citrobacter freundii 64 expressing plasmid-mediated quinolone resistance qnr A gene by agar dilution method; format: functional
Enterobacter cloacae [8] = assay: Antimicrobial activity Enterobacter cloacae 63 expressing plasmid-mediated quinolone resistance qnr A gene by agar dilution method; format: functional
Enterobacter cloacae [9] = assay: Antimicrobial activity Enterobacter cloacae 91 expressing plasmid-mediated quinolone resistance qnr A gene by agar dilution method; format: functional
Enterobacter cloacae [10] = assay: Antimicrobial activity Enterobacter cloacae 113 expressing plasmid-mediated quinolone resistance qnr A gene by agar dilution method; format: functional
Escherichia coli [11] = assay: microbe, parasite or virus in culture; conditions: 650
Description: (§1) Antimicrobial activity Escherichia coli 650 expressing plasmid-mediated quinolone resistance qnr A gene by agar dilution method

Escherichia coli [12] = conditions: 650
Description: as §1

Escherichia coli [13] = assay: Antibacterial activity against Escherichia coli HB101 by agar dilution method; format: functional
Escherichia coli [14] = assay: Antibacterial activity against pKK232-8-tranformed Escherichia coli HB101 transformants harboring promoterless cat gene by agar dilution method; format: functional
Escherichia coli [15] = assay: Antibacterial activity against pKK232-8-HS3-transformed Escherichia coli HB101 transformants harboring promoter sequence of qnrA1 gene cloned with promoterless cat gene by agar dilution method; format: functional
Escherichia coli [16] = assay: Antibacterial activity against pKK232-8-HS4-transformed Escherichia coli HB101 transformants harboring promoter sequence of qnrA1 gene cloned with promoterless cat gene by agar dilution method; format: functional
Escherichia coli [17] = assay: Antibacterial activity against pKK232-8-HS5-transformed Escherichia coli HB101 transformants harboring promoter sequence of qnrA1 gene cloned with promoterless cat gene by agar dilution method; format: functional
Escherichia coli [18] = assay: Antibacterial activity against pKK232-8-HS6-transformed Escherichia coli HB101 transformants harboring promoter sequence of qnrA1 gene cloned with promoterless cat gene by agar dilution method; format: functional
Escherichia coli [19] = assay: Ratio of MIC for pKK232-8-HS6-transformed Escherichia coli HB101 transformants to MIC for pKK232-8-HS3-transformed Escherichia coli HB101 transformants; format: functional
Escherichia coli [20] = assay: Ratio of MIC for pKK232-8-HS6-transformed Escherichia coli HB101 transformants to MIC for pKK232-8-HS4-transformed Escherichia coli HB101 transformants; format: functional
Escherichia coli [21] = assay: Ratio of MIC for pKK232-8-HS6-transformed Escherichia coli HB101 transformants to MIC for pKK232-8-HS5-transformed Escherichia coli HB101 transformants; format: functional
Escherichia coli [22] = assay: Antibacterial activity against Escherichia coli isolate 1B harboring qnrA1 and blaVEB1 genes by agar dilution method

COc1cc(Cc2cnc(N)nc2N)cc(OC)c1OC [TRIMETHOPRIM]
MIC (Escherichia coli [1]): ≤ 0.06 µg/mL | MIC (Escherichia coli [2]): ≥ 512 µg/mL | MIC (Escherichia coli [3]): ≥ 512 µg/mL | MIC (Escherichia coli [4]): 0.25 µg/mL (≈ 0.861 µM) | MIC (Escherichia coli [5]): ≤ 0.06 µg/mL

NC[C@H]1O[C@H](O[C@H]2[C@H](O)[C@@H](O[C@H]3O[C@H](CO)[C@@H](O)[C@H](N)[C@H]3O)[C@H](N)C[C@@H]2N)[C@H](N)C[C@@H]1O [TOBRAMYCIN]
MIC (Escherichia coli [1]): 8 µg/mL (≈ 17.1 µM) | MIC (Escherichia coli [2]): 8 µg/mL (≈ 17.1 µM) | MIC (Escherichia coli [3]): 8 µg/mL (≈ 17.1 µM) | MIC (Escherichia coli [4]): 8 µg/mL (≈ 17.1 µM) | MIC (Escherichia coli [5]): 0.25 µg/mL (≈ 0.535 µM)

CO/N=C(\C(=O)N[C@@H]1C(=O)N2C(C(=O)O)=C(COC(C)=O)CS[C@H]12)c1csc(N)n1 [CEFOTAXIME]
MIC (Enterobacter cloacae [6]): 32 µg/mL (≈ 70.3 µM) | MIC (Escherichia coli [7]): ≥ 128 µg/mL | MIC (Citrobacter freundii): 2 µg/mL (≈ 4.39 µM) | MIC (Escherichia coli [1]): ≤ 0.06 µg/mL | MIC (Escherichia coli [2]): 8 µg/mL (≈ 17.6 µM) | MIC (Escherichia coli [3]): 8 µg/mL (≈ 17.6 µM) | MIC (Escherichia coli [4]): 0.125 µg/mL (≈ 0.274 µM) | MIC (Escherichia coli [5]): ≤ 0.06 µg/mL | MIC (Enterobacter cloacae [8]): 64 µg/mL (≈ 141 µM) | MIC (Enterobacter cloacae [9]): 32 µg/mL (≈ 70.3 µM) | MIC (Enterobacter cloacae [10]): 64 µg/mL (≈ 141 µM) | MIC (Escherichia coli [11]): 1 µg/mL (≈ 2.2 µM)

GENTAMICIN
MIC (Enterobacter cloacae [6]): 4 µg/mL | MIC (Escherichia coli [7]): > 128 µg/mL | MIC (Citrobacter freundii): 32 µg/mL | MIC (Escherichia coli [1]): 8 µg/mL | MIC (Escherichia coli [2]): 2 µg/mL | MIC (Escherichia coli [3]): 2 µg/mL | MIC (Escherichia coli [4]): 0.25 µg/mL | MIC (Escherichia coli [5]): 0.25 µg/mL | MIC (Enterobacter cloacae [8]): 4 µg/mL | MIC (Enterobacter cloacae [9]): 8 µg/mL | MIC (Enterobacter cloacae [10]): 8 µg/mL | MIC (Escherichia coli [12]): > 128 µg/mL

O=C(N[C@H](CO)[C@H](O)c1ccc([N+](=O)[O-])cc1)C(Cl)Cl [CHLORAMPHENICOL]
MIC (Escherichia coli [13]): 3 µg/mL (≈ 9.28 µM) | MIC (Escherichia coli [14]): 3 µg/mL (≈ 9.28 µM) | MIC (Escherichia coli [15]): 8 µg/mL (≈ 24.8 µM) | MIC (Escherichia coli [16]): 8 µg/mL (≈ 24.8 µM) | MIC (Escherichia coli [17]): 8 µg/mL (≈ 24.8 µM) | MIC (Escherichia coli [18]): 96 µg/mL (≈ 297 µM) | Ratio (Escherichia coli [19]): 12 | Ratio (Escherichia coli [20]): 12 | Ratio (Escherichia coli [21]): 12

O=C(O)c1cn(C2CC2)c2cc(N3CCNCC3)c(F)cc2c1=O [CIPROFLOXACIN]
MIC (Escherichia coli [22]): > 32 µg/mL

CC(C)(O/N=C(\C(=O)N[C@@H]1C(=O)N2C(C(=O)[O-])=C(C[n+]3ccccc3)CS[C@H]12)c1csc(N)n1)C(=O)O [CEFTAZIDIME]
MIC (Enterobacter cloacae [6]): 64 µg/mL (≈ 117 µM) | MIC (Escherichia coli [7]): 4 µg/mL (≈ 7.32 µM) | MIC (Citrobacter freundii): 4 µg/mL (≈ 7.32 µM) | MIC (Escherichia coli [1]): 0.125 µg/mL (≈ 0.229 µM) | MIC (Escherichia coli [2]): 8 µg/mL (≈ 14.6 µM) | MIC (Escherichia coli [3]): 32 µg/mL (≈ 58.5 µM) | MIC (Escherichia coli [4]): 0.125 µg/mL (≈ 0.229 µM) | MIC (Escherichia coli [5]): 0.125 µg/mL (≈ 0.229 µM) | MIC (Enterobacter cloacae [8]): 32 µg/mL (≈ 58.5 µM) | MIC (Enterobacter cloacae [9]): 128 µg/mL (≈ 234 µM) | MIC (Enterobacter cloacae [10]): 128 µg/mL (≈ 234 µM) | MIC (Escherichia coli [11]): 4 µg/mL (≈ 7.32 µM)

C[C@H]1COc2c(N3CCN(C)CC3)c(F)cc3c(=O)c(C(=O)O)cn1c23.C[C@H]1COc2c(N3CCN(C)CC3)c(F)cc3c(=O)c(C(=O)O)cn1c23.O [LEVOFLOXACIN]
MIC (Escherichia coli [1]): 0.19 µg/mL | MIC (Escherichia coli [2]): 0.19 µg/mL | MIC (Escherichia coli [3]): 0.19 µg/mL | MIC (Escherichia coli [4]): 0.38 µg/mL

NCC[C@H](O)C(=O)N[C@@H]1C[C@H](N)[C@@H](O[C@H]2O[C@H](CN)[C@@H](O)[C@H](O)[C@H]2O)[C@H](O)[C@H]1O[C@H]1O[C@H](CO)[C@@H](O)[C@H](N)[C@H]1O [AMIKACIN]
MIC (Escherichia coli [1]): 2 µg/mL (≈ 3.42 µM) | MIC (Escherichia coli [2]): 4 µg/mL (≈ 6.83 µM) | MIC (Escherichia coli [3]): 4 µg/mL (≈ 6.83 µM) | MIC (Escherichia coli [4]): 2 µg/mL (≈ 3.42 µM) | MIC (Escherichia coli [5]): 0.5 µg/mL (≈ 0.854 µM)

Cc1cc(NS(=O)(=O)c2ccc(N)cc2)no1 [SULFAMETHOXAZOLE]
MIC (Enterobacter cloacae [6]): ≥ 512 µg/mL | MIC (Escherichia coli [7]): ≥ 512 µg/mL | MIC (Citrobacter freundii): ≥ 512 µg/mL | MIC (Escherichia coli [1]): ≥ 512 µg/mL | MIC (Escherichia coli [2]): ≥ 512 µg/mL | MIC (Escherichia coli [3]): ≥ 512 µg/mL | MIC (Escherichia coli [4]): ≥ 512 µg/mL | MIC (Escherichia coli [5]): 8 µg/mL (≈ 31.6 µM) | MIC (Enterobacter cloacae [8]): ≥ 512 µg/mL | MIC (Enterobacter cloacae [9]): ≥ 512 µg/mL | MIC (Enterobacter cloacae [10]): ≥ 512 µg/mL | MIC (Escherichia coli [11]): ≥ 512 µg/mL

CC1(C)S[C@@H]2[C@H](NC(=O)[C@H](N)c3ccccc3)C(=O)N2[C@H]1C(=O)O [AMPICILLIN]
MIC (Escherichia coli [1]): 512 µg/mL (≈ 1470 µM) | MIC (Escherichia coli [2]): ≥ 512 µg/mL | MIC (Escherichia coli [3]): ≥ 512 µg/mL | MIC (Escherichia coli [4]): 512 µg/mL (≈ 1470 µM) | MIC (Escherichia coli [5]): 8 µg/mL (≈ 22.9 µM)

NC[C@H]1O[C@H](O[C@H]2[C@H](O)[C@@H](O[C@H]3O[C@H](CO)[C@@H](O)[C@H](N)[C@H]3O)[C@H](N)C[C@@H]2N)[C@H](O)[C@@H](O)[C@@H]1O [KANAMYCIN]
MIC (Escherichia coli [1]): 8 µg/mL (≈ 16.5 µM) | MIC (Escherichia coli [2]): 64 µg/mL (≈ 132 µM) | MIC (Escherichia coli [3]): 64 µg/mL (≈ 132 µM) | MIC (Escherichia coli [4]): 16 µg/mL (≈ 33 µM) | MIC (Escherichia coli [5]): 0.5 µg/mL (≈ 1.03 µM)

CN[C@@H]1[C@H](O[C@H]2[C@H](O[C@H]3[C@H](O)[C@@H](O)[C@H](N=C(N)N)[C@@H](O)[C@@H]3N=C(N)N)O[C@@H](C)[C@]2(O)C=O)O[C@@H](CO)[C@H](O)[C@H]1O [STREPTOMYCIN]
MIC (Escherichia coli [1]): 2 µg/mL (≈ 3.44 µM) | MIC (Escherichia coli [2]): 8 µg/mL (≈ 13.8 µM) | MIC (Escherichia coli [3]): 8 µg/mL (≈ 13.8 µM) | MIC (Escherichia coli [4]): 1 µg/mL (≈ 1.72 µM) | MIC (Escherichia coli [5]): 1 µg/mL (≈ 1.72 µM)

From ChEMBL document CHEMBL1137652, “Prevalence and expression of the plasmid-mediated quinolone resistance determinant qnrA1” (2007)
